Like-named read-outs stand apart in the source and are kept apart here.
Assays:
Format in all cases: cell-based
[1] = system: yeast Saccharomyces cerevisiae; test: Simultaneous saccharification and fermentation (SSF) of spruce slurry; conditions: for Final ethanol concentration: after 70 hours
Procedure: Addition of sodium dithionite and sodium sulphite was tested in an SSF process. Spruce was pretreated as described in Example 1 above. The spruce slurry was adjusted to pH 5.4 with a 5 M solution of sodium hydroxide. Ten 250-mL shake flasks equipped with magnetic stirrer bars were filled with 100 g of spruce slurry. Sodium dithionite or sodium sulphite was added to the slurries to final concentrations of 7.5 and 10 mM. The additions were performed at room temperature (23° C.) for 10 min with stirring. Duplicate experiments were made. Cellulase and cellobiase preparations were prepared and added to the slurry using the enzyme activity loadings as described in Example 1 above. Further, the yeast inoculum was prepared according to Example 1 above. Inoculums were added to give a start concentration of 2.0 g/L (cell dry weight) in every flask. No source of extra nutrients was added. For comparison, two flasks with spruce slurry to which no reducing agents had been added were included in the experiment. The flasks were incubated at 35° C. for 69 h in a water bath with magnetic stirring. The flasks were sealed with Parafilm (Pechiney Plastic Packaging Company, Chicago, Ill., USA) to prevent evaporation of ethanol. Samples were withdrawn for analysis of ethanol according to Examplel above.
A spruce slurry was prepared according to Examples 1 and 2 above. Different flasks were filled with 100 g each of the spruce slurry and were subjected to a SSF process according to Example 2 above, but with different amounts of dithionite and sulphite added. The produced ethanol was monitored during the fermentation. […]

[2] = system: yeast Saccharomyces cerevisiae; test: Simultaneous saccharification and fermentation (SSF) of sugarcane bagass slurry; conditions: for Fermentability: 7.5 and 10 mM, 13 and 45 hours (FIG. 9)
Procedure: The pretreatment of sugarcane bagass for SSF experiments was performed in the Swedish cellulosic ethanol pilot plant (operated by SEKAB E-Technology, Örnskoldsvik, Sweden). Sugarcane bagass was treated in a continuous mode in a 30-liter reactor at a temperature of 198-199° C. and with a residence time of 13-14 min. The feed rate was 24 kg (dry weight) per h and the bagass was impregnated with sulfur dioxide (0.5 kg/h). The pH after pretreatment was 2.7. The dry matter content was 19%. The pretreated material was cooled and stored at 4° C. until further use.
SSF experiments were also performed with sugarcane bagass slurries. The sugarcane bagass slurries were prepared as described in Example 1. Reducing agents, dithionite and sulphite, respectively, were added 10 min prior to inoculum in concentrations of studied 7.5 and 10 mM. The ethanol concentration was measured after 13 and 45 hours according to the protocol described in Example 1.

[3] = system: baker's yeast (Saccharomyces cerevisiae)
Procedure: The pH of the sugarcane bagass and spruce hydrolysates were adjusted to 5.5 with a 5 M solution of sodium hydroxide. The conditioning of each hydrolysate was performed in eight 100-mL glass vessels equipped with magnetic stirrer bars. 26 mL hydrolysate was added to all vessels, and the vessels were placed on a magnetic stirrer plate (IKA-Werke, Staufen, Germany). Sodium dithionite (chemical grade; >87%, Merck, Darmstadt, Germany) was added to hydrolysates in the concentrations 5 and 10 mM. Additions of sodium sulphite to 5 and 10 mM were also performed. The additions were made at room temperature (23° C.) and the samples were kept for 10 min with stirring. The experiments were performed in duplicates.
The efficiency of the additions of the reducing agents was compared with alkali detoxification.
Ethanol measurements were performed by using an enzymatic kit (Ethanol UV-method, Boehringer Mannheim GmbH, Mannheim, Germany). Fermentation experiments were performed to evaluate the effectiveness of the additions and treatments. For comparison, untreated hydrolysates were included in the fermentation experiments as well as reference fermentations of sugar-based medium with an amount of fermentable sugars (i.e. glucose and mannose) corresponding to that in the hydrolysate samples. The fermentations were carried out using baker's yeast (Saccharomyces cerevisiae) (Jastbolaget AB, Rotebro, Sweden). The yeast inoculum was prepared in 750-mL cotton-plugged shake flasks with 300 mL YEPD medium (2% yeast extract, 1% peptone, 2% D-glucose). The flasks were inoculated and incubated with agitation at 30° C. for approximately 12 h. The cells were harvested in the late exponential growth phase by centrifugation (Hermla Z206A, Hermle Labortechnik GmbH, Wehingen, Germany) at 1,500 g for 5 min. The cells were resuspended in an appropriate amount of sterile water to achieve an inoculum consisting of 2.0 g/L (cell dry weight) in all fermentation vessels. The fermentation was carried out in 14 25-mL glass flasks equipped with magnets for stirring and sealed with rubber plugs pierced with cannulas for letting out carbon dioxide. The hydrolysate samples (23.75 mL), or alternatively the sugar solution for reference fermentations, were added to the fermentation flasks along with 0.5 mL of a nutrient solution (150 g/L yeast extract, 75 g/L (NH4)2HPO4, 3.75 g/L MgSO4.7H2O, 238.2 g/L NaH2PO4.H2O), and 0.75 mL of yeast inoculum. The flasks were incubated at 30° C. in a water bath with magnetic stirring (IKA-Werke). Samples for measurement of sugars and ethanol were withdrawn during the fermentation. The glucose levels during the fermentation were estimated by using a glucometer (Glucometer Elite XL, Bayer AG, Leverkusen, Germany).

[4] = spruce hydrolysate, 10 mM (FIGS. 1 and 2)
[5] = spruce hydrolysate, 14 h fermentation, 10 mM
[6] = 6 h fermentation, NH4OH detoxification, pH 9, 55° C., 3 h
[7] = spruce hydrolysate, 14 h fermentation, NH4OH detoxification, pH 9, 55° C., 3 h

Row | SMILES | Final ethanol concentration ([1]; 2.5 mM) | Final ethanol concentration ([1]; 5 mM) | Final ethanol concentration ([1]; 7.5 mM) | Final ethanol concentration ([1]; 10 mM) | Final ethanol concentration ([1]; 15 mM) | Final ethanol concentration ([1]; 20 mM) | Final ethanol concentration ([1]; 30 mM) | Ethanol production compared to untreated ([1]; 7.5 and 10 mM (FIG. 5)) | Fermentability [2] | Balanced ethanol yield ([3]; 6 h fermentation, 10 mM) | Productivity ([3]; 6 h fermentation, 10 mM) [g EtOH×L^−1×h^−1] | Yield (ethanol) ([3]; 6 h fermentation, 10 mM) | Glucose consumption rates and amounts of ethanol produced [3, 4] | Balanced ethanol yield [3, 5] | Productivity [3, 5] [g EtOH×L^−1×h^−1] | Yield (ethanol) [3, 5] | also measured
1 | O=S([O-])[O-].[Na+].[Na+] [Sulphite, sodium sulphite] | did not result in as high final ethanol concentrations | did not result in as high final ethanol concentrations | 35 to 40 g/L | 35 to 40 g/L | about 40 g/L | about 40 g/L | about 40 g/L | higher ethanol production compared to the untreated hydrolysate | improved fermentability | 0.21 g EtOH/Σglucose & mannose prior to detoxification | 2.9 | 0.32 g EtOH/g consumed glucose & mannose | substantial improvement compared to untreated hydrolysate | 0.16 g EtOH/Σglucose & mannose prior to detoxification | 1.2 | 0.29 g EtOH/g consumed glucose & mannose | Ethanol production compared with dithionite samples ([1]; 7.5 and 10 mM (FIG. 5)): lower ethanol production compared to the samples to which dithionite was added; Time after which ethanol formation leveled off ([1]; 7.5 and 10 mM (FIG. 5)): 20 h
2 | O=S([O-])S(=O)[O-].[Na+].[Na+] [Dithionite, Sodium dithionite] | about 10 g/L | 35 to 40 g/L | highest ethanol production | highest ethanol production | highest ethanol production | 35 to 40 g/L | about 30 g/L | higher ethanol production compared to the untreated hydrolysate | improved fermentability | 0.28 g EtOH/Σglucose & mannose prior to detoxification | 3.9 | 0.34 g EtOH/g consumed glucose & mannose | comparable to those of the reference fermentation | 0.34 g EtOH/Σglucose & mannose prior to detoxification | 2.5 | 0.37 g EtOH/g consumed glucose & mannose | Ethanol levels and ethanol formation ([1]; 7.5 mM, compared with 10 mM dithionite (FIG. 5)): reached the same high levels of ethanol, but ethanol formation was slightly slower; Time after which ethanol formation leveled off ([1]; 10 mM (FIG. 5)): about 45 h; Improvement of ethanol production, dithionite compared with sulphite ([1]; 10 mM (FIG. 8)): better improvement than the addition of sulphite; Ethanol production, dithionite compared with sulphite ([2]; 10 and 7.5 mM (FIG. 9)): better than any of the sulphite concentrations; Ethanol concentration compared with other additions ([3]; 10 mM (FIG. 4)): higher ethanol concentration compared to addition of 5 mM dithionite or 10 mM sulphite; Glucose consumption rates and amounts of ethanol produced ([3]; spruce hydrolysate, 5 mM (FIGS. 1 and 2)): substantial improvement compared to untreated hydrolysate
3 | N [NH4OH, ammonium hydroxide, reference compound] |  |  |  |  |  |  |  |  |  |  |  |  |  |  |  |  | Balanced ethanol yield [3, 6]: 0.25 g EtOH/Σglucose & mannose prior to detoxification; Productivity [3, 6]: 3.5 g EtOH×L^−1×h^−1; Yield (ethanol) [3, 6]: 0.34 g EtOH/g consumed glucose & mannose; Balanced ethanol yield [3, 7]: 0.37 g EtOH/Σglucose & mannose prior to detoxification; Productivity [3, 7]: 2.8 g EtOH×L^−1×h^−1; Yield (ethanol) [3, 7]: 0.43 g EtOH/g consumed glucose & mannose

Reference: patent US8795997B2 (priority 2009, dated 2014)
